From ChEMBL document CHEMBL6109159, “Discovery of a Potent and Selective Protein Arginine Methyltransferase 5 (PRMT5) PROTAC Degrader” (J Med Chem, 2025)
Calls of active or inactive are those of the source. No cut-off for these calls is given here.

Experiments:
[1] = molecular target: T1, von Hippel-Lindau disease tumor suppressor/Protein arginine N-methyltransferase 5 (Homo sapiens, UniProt O14744+P40337); assay: PROTAC activity at PRMT5/VHL in human MDA-MB-468 cells assessed as relative protein level at 5 uM measured after 24 hrs by Western blot analysis; assay type: cell-based
[2] = molecular target: T1, von Hippel-Lindau disease tumor suppressor/Protein arginine N-methyltransferase 5; assay: PROTAC activity at PRMT5/VHL in human MDA-MB-468 cells assessed as maximal degradation measured after 72 hrs by Western blot analysis relative to control; assay type: cell-based
[3] = molecular target: T2, von Hippel-Lindau disease tumor suppressor/Methylosome protein WDR77 (Homo sapiens, UniProt Q9BQA1+P40337); assay: PROTAC activity at MEP50/VHL in human MDA-MB-468 cells assessed as degradation measured after 72 hrs by Western blot analysis relative to control; assay type: cell-based
Target sequence in this assay (Q9BQA1 whole entry): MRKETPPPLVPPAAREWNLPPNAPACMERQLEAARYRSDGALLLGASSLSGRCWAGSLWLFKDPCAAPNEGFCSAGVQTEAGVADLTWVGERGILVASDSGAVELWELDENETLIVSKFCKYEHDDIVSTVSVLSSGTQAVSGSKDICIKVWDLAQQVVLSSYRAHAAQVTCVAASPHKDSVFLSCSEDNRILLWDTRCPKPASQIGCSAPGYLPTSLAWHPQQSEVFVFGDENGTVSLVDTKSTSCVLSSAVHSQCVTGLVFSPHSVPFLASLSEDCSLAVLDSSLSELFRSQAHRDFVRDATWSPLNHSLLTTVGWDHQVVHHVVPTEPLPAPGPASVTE
Target sequence in this assay (P40337 whole entry): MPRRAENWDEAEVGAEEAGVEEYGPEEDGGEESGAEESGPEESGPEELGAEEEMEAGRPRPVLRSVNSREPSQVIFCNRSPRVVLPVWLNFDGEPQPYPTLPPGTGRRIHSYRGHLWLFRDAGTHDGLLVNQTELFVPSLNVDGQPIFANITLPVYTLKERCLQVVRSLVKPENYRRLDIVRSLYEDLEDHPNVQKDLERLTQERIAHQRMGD

[4] = molecular target: Protein arginine N-methyltransferase 5 (Homo sapiens, UniProt O14744); assay: Inhibition of PRMT5 (unknown origin) using S-adenosylmethionine (SAM) using as substrate preincubated for 30 mins followed by substrate addition measured after 60 mins by microplate reader
[5] = molecular target: T2, von Hippel-Lindau disease tumor suppressor/Methylosome protein WDR77; assay: PROTAC activity at MEP50/VHL in VHL KO human MDA-MB-468 cells assessed as degradation at 0.5 uM of compound after 24 hrs by Western blot analysis; assay type: cell-based
Target sequence in this assay (P40337 whole entry, looked up): as the sequence (P40337 whole entry) above
Target sequence in this assay (Q9BQA1 whole entry, looked up): as the sequence (Q9BQA1 whole entry) above

[6] = molecular target: T1, von Hippel-Lindau disease tumor suppressor/Protein arginine N-methyltransferase 5; assay: PROTAC activity at PRMT5/VHL in human MDA-MB-468 cells assessed as downregulation of PRMT5 at 2 uM of compound after 24 hrs by mass spectrometry (MS)-based global proteomic study; assay type: cell-based
MDA-MB-468 [7] = assay: Inhibition of sDMA (symmetric dimethylarginine) level in human MDA-MB-468 cells at 2 uM measured after 7 days by Western blot analysis; assay type: functional, cell-based; settings: time 7.0 day
MDA-MB-468 [8] = assay: Inhibition of colony formation in human MDA-MB-468 cells incubated for 16 days by crystal violet staining based analysis; assay type: functional, cell-based; settings: time 16.0 day
[9] = molecular target: T1, von Hippel-Lindau disease tumor suppressor/Protein arginine N-methyltransferase 5; assay: PROTAC activity at PRMT5/VHL in human MCF7 cells assessed as degradation at 0.5 uM after 3 days by Western blot analysis; assay type: cell-based; settings: time 3.0 day
[10] = molecular target: T2, von Hippel-Lindau disease tumor suppressor/Methylosome protein WDR77; assay: PROTAC activity at MEP50/VHL in human MCF7 cells assessed as degradation at 5 uM after 3 days by Western blot analysis; assay type: cell-based; settings: time 3.0 day
Target sequence in this assay (P40337 whole entry, looked up): as the sequence (P40337 whole entry) above
Target sequence in this assay (Q9BQA1 whole entry, looked up): as the sequence (Q9BQA1 whole entry) above

[11] = molecular target: T1, von Hippel-Lindau disease tumor suppressor/Protein arginine N-methyltransferase 5; assay: PROTAC activity at PRMT5/VHL in human MDA-MB-231 cells assessed as degradation at 0.5 uM after 3 days by Western blot analysis; assay type: cell-based; settings: time 3.0 day
[12] = molecular target: T2, von Hippel-Lindau disease tumor suppressor/Methylosome protein WDR77; assay: PROTAC activity at MEP50/VHL in human MDA-MB-231 cells assessed as degradation at 5 uM after 3 days by Western blot analysis; assay type: cell-based; settings: time 3.0 day
Target sequence in this assay (P40337 whole entry, looked up): as the sequence (P40337 whole entry) above
Target sequence in this assay (Q9BQA1 whole entry, looked up): as the sequence (Q9BQA1 whole entry) above

BT-549 = assay: Growth inhibition of human BT-549 cells assessed as cell viability measured after 5 days by CCK-8 assay; assay type: functional, cell-based; settings: time 5.0 day
HCC70 = assay: Growth inhibition of human HCC70 cells assessed as cell viability measured after 5 days by CCK-8 assay; assay type: functional, cell-based; settings: time 5.0 day
PC-3 = assay: Inhibition of colony formation in human PC-3 cells incubated for 10 days by crystal violet staining based analysis; assay type: functional, cell-based; settings: time 10.0 day
MCF-10A = assay: PROTAC activity at MEP50/VHL in human MCF-10A cells assessed as degradation at 0.5 to 5 uM after 3 days by Western blot analysis; assay type: cell-based; settings: dose 0.5-5 µM, time 3.0 day
[13] = Cmax in Swiss albino mouse plasma at 50 mg/kg, ip measured after 0.5 hrs by LC-MS/MS analysis; assay type: ADME, organism-based; settings: in vivo

T1 sequence (O14744 whole entry, looked up): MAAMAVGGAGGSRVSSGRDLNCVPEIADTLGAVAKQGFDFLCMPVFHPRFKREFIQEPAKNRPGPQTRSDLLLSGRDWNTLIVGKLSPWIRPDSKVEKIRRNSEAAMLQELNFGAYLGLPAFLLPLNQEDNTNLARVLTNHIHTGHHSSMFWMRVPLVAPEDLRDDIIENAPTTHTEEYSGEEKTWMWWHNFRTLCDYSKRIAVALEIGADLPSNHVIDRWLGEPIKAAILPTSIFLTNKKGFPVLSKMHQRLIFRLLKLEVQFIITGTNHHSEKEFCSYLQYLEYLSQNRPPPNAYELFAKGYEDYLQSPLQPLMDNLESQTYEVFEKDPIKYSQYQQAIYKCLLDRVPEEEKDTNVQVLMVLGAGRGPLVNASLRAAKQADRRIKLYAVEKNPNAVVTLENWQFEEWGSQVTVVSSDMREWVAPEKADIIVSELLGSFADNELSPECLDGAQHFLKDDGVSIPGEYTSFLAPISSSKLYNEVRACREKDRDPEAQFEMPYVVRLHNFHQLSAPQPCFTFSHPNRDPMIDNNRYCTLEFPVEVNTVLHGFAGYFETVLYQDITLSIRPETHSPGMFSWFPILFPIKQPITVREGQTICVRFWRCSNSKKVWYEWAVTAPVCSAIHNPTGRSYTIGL
T1 sequence (P40337 whole entry, looked up): as the sequence (P40337 whole entry) above
Chain of Protein arginine N-methyltransferase 5 (O14744 whole entry): as the sequence (O14744 whole entry, looked up) above

## Cc1ncsc1-c1ccc([C@H](CC(=O)NCCOCCOCCOCCOCCOCCC(=O)N2CCC(Nc3cc(C(=O)NC[C@H](O)CN4CCc5ccccc5C4)ncn3)CC2)NC(=O)[C@@H]2C[C@@H](O)CN2C(=O)[C@@H](NC(=O)C2(F)CC2)C(C)(C)C)cc1
[1]
  Activity: Active
[2]
  Emax: 86%
[3]
  DC50: 0.0113 µM
[4]
  IC50: 2.1 µM
[5]
  Activity: Not active; Complete Rescue Not Observed - Due To Incomplete Vhl Ko
[6]
  Activity: Active
MDA-MB-468 [7]
  inhibition: Active
MDA-MB-468 [8]
  Activity: Active
[9]
  Activity: Active
[10]
  Activity: Active
[11]
  Activity: Active
[12]
  Activity: Active
BT-549
  growth inhibition (GI): Active
HCC70
  growth inhibition (GI): Active
PC-3
  Activity: Active
MCF-10A
  Activity: 100%
[13]
  Cmax: 17.5 µM
